In patent US12534474B2, “Dihydrofuropyridine derivatives as rho-kinase inhibitors” (CHIESI FARMACEUTICI S.P.A., priority 2020, dated 2026):

Legend:
Type in all cases: biochemical
ROCK1 [1] = target: T1, ROCK1 (Homo sapiens, UniProt Q13464); experiment: In vitro Rho kinase inhibitory activity assay, ADP-Glo, Method A (ATP 10 μM); details: read-out: Method A ROCK 1 (Ki)
Description: (§1) In Vitro Inhibitory Activity Assay Description (Method A)
(§2) The effectiveness of compounds of the present invention to inhibit Rho kinase activity can be determined in a 10 μL assay containing 40 mM Tris pH7.5, 20 mM MgCl2 0.1 mg/mL BSA, 50 μM DTT and 2.5 μM peptide substrate (Myelin Basic Protein) using an ADP-Glo kit (Promega). Compounds were dissolved in DMSO such that the final concentration of DMSO was 1% in the assay. All reactions/incubations are performed at 25° C. Compound (2 μL) and either Rho kinase 1 or 2 (4 μL) were mixed and incubated for 30 min. Reactions were initiated by addition of ATP (4 μL) such that the final concentration of ATP in the assay was 10 μM. After a 1 hour incubation 10 μL of ADP-Glo Reagent was added and after a further 45 minute incubation 20 μL of Kinase Detection Buffer was added and the mixture incubated for a further 30 minutes. The luminescent signal was measured on a luminometer. […] Compounds were tested in dose-response format and the inhibition of kinase activity was calculated at each concentration of compound. To determine the IC50 (concentration of compound required to inhibit 50% of the enzyme activity) data were fit to a plot of % inhibition vs Log10 compound concentration using a sigmoidal fit with a variable slope and fixing the maximum to 100% and the minimum to 0%. To determine the Ki values the Cheng-Prusoff equation was utilized (Ki=IC50/(1+[S]/Km).

ROCK2 [2] = target: T2, ROCK2 (Homo sapiens, UniProt O75116); experiment: as above; details: read-out: Method A ROCK 2 (Ki)
Description: as §1, §2

ROCK1 [3] = target: T1, ROCK1; experiment: In vitro Rho kinase inhibitory activity assay, ADP-Glo, Method B (ATP 200 μM); details: read-out: Method B ROCK 1 (Ki)
Description: (§3) In Vitro Inhibitory Activity Assay Description (Method B)
as §2, with “(2 ul)” for “(2 μL)”, “was 200” for “was 10”, “20 ul” for “20 μL”, “vs Log 10” for “vs Log10”

ROCK2 [4] = target: T2, ROCK2; experiment: as above; details: read-out: Method B ROCK 2 (Ki)
Description: as §3
as §2, with “(2 ul)” for “(2 μL)”, “was 200” for “was 10”, “20 ul” for “20 μL”, “vs Log 10” for “vs Log10”

PKA = PKA (Homo sapiens, UniProt P17612); experiment: In vitro inhibitory activity assay for PKA, ADP-Glo, reported as selectivity ratio vs ROCK2; details: Ki for PKA divided by Ki of ROCK2 (Method B)
Description: In Vitro Inhibitory Activity Assay Description for PKA
The effectiveness of compounds of the present invention to inhibit PKA activity can be determined in a 10 μL assay containing 40 mM Tris pH7.5, 20 mM MgCl2 0.1 mg/mL BSA, 50 μM DTT and 260 μM peptide substrate (kemptide) using an ADP-Glo kit (Promega). Compounds were dissolved in DMSO such that the final concentration of DMSO was 1% in the assay. All reactions/incubations are performed at 25° C. Compound and PKA enzyme (6 μL) were mixed and incubated for 30 min. Reactions were initiated by addition of ATP (4 μL) such that the final concentration of ATP in the assay was 10 μM. After a 30 minute incubation 10 μL of ADP-Glo Reagent was added and after a further 1 hour incubation 20 μL of Kinase Detection Buffer was added and the mixture incubated for a further 45 minutes. The luminescent signal was measured on a luminometer. […] Compounds were tested in dose-response format and the inhibition of kinase activity was calculated at each concentration of compound. To determine the IC50 (concentration of compound required to inhibit 50% of the enzyme activity) data were fit to a plot of % inhibition vs Log10 compound concentration using a sigmoidal fit with a variable slope and fixing the maximum to 100% and the minimum to 0%. To determine the Ki values the Cheng-Prusoff equation was utilized (Ki=IC50/(1+[S]/Km).
In vitro inhibitory activities for PKA were reported as selectivity ratio vs. ROCK2. Selectivity ratio PKA/ROCK2 was calculated by dividing the Ki value for PKA by Ki value of ROCK2 (Method B) and reported into table 1.

T2 sequence (O75116 whole entry): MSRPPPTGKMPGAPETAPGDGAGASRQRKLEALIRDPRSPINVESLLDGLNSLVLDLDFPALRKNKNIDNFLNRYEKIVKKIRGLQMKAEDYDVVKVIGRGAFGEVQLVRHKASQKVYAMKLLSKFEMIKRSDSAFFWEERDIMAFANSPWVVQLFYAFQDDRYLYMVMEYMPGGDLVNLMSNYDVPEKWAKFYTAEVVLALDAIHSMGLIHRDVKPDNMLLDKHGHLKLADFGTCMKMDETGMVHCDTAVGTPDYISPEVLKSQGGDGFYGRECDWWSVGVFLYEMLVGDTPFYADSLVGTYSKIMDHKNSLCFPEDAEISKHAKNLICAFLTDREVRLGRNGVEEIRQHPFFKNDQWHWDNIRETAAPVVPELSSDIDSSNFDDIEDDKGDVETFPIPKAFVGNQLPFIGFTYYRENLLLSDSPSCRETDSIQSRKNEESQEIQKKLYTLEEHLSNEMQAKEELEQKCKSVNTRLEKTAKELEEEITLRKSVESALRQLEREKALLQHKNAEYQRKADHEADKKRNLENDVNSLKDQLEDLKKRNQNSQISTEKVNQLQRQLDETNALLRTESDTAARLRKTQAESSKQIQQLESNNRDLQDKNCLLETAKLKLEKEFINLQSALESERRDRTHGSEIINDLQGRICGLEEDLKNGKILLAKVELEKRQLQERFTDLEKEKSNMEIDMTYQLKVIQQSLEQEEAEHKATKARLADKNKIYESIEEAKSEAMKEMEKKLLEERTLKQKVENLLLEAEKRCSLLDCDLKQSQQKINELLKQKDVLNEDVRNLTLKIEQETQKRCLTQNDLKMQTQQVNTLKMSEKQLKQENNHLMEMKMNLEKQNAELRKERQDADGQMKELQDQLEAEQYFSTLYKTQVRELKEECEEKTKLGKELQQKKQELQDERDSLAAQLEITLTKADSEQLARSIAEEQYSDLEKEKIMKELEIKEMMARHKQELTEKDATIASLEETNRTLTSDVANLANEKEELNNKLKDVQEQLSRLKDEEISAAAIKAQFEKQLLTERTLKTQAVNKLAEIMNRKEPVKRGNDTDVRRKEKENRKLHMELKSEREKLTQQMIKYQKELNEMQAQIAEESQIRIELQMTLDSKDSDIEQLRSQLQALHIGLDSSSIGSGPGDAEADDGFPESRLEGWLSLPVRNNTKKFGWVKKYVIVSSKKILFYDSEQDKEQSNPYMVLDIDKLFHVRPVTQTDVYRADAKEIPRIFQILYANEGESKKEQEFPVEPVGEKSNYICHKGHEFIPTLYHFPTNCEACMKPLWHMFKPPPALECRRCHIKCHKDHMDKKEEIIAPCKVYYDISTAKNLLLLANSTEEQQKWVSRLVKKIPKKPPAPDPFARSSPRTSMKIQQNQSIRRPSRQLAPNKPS
T1 sequence (Q13464 whole entry): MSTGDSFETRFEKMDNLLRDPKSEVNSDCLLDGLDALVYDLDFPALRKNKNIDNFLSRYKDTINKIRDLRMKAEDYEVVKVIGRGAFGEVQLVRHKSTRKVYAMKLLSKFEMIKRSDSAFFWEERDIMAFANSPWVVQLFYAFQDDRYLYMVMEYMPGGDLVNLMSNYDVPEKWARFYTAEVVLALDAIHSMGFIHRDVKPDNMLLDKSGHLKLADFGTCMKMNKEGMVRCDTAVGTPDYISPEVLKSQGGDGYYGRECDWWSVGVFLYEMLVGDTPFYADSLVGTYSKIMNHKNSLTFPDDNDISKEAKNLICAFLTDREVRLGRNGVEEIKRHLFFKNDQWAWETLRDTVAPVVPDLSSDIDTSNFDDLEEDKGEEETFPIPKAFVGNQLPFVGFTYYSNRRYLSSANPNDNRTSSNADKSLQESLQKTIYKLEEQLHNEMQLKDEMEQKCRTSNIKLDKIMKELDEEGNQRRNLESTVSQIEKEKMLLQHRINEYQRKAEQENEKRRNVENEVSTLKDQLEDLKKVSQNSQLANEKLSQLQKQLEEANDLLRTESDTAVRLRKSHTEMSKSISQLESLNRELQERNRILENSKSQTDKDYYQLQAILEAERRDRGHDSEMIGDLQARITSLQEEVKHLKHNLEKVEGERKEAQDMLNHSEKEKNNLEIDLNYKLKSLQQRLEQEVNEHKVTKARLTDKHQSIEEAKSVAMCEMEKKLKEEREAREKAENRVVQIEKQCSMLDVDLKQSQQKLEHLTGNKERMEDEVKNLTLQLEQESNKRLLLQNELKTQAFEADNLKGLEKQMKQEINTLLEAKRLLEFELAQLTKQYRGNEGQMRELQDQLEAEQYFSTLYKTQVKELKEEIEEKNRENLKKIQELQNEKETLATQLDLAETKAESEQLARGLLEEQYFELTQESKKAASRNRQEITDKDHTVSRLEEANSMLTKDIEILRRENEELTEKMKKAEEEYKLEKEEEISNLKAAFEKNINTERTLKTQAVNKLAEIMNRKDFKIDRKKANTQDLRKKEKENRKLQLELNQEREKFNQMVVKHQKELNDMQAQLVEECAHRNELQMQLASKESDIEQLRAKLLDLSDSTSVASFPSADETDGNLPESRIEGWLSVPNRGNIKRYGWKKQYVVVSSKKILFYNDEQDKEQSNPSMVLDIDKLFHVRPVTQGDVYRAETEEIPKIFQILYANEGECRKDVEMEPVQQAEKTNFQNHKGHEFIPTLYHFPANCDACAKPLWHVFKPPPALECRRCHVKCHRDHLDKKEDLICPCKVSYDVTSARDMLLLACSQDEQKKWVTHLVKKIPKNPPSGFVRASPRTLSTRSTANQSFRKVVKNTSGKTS

Ki (ROCK1 [1]) [nM] | Ki (ROCK2 [2]) [nM] | Ki (ROCK1 [3]) [nM] | Ki (ROCK2 [4]) [nM] | Ratio (PKA/ROCK2) (PKA) | SMILES
≤ 3 | ≤ 3 | ≤ 3 | ≤ 3 | *** (ratio≥10) | CN1CCc2sc(C(=O)Nc3cccc(CNc4ncc(-c5ccncc5)c5c4CCO5)c3)nc2C1 [Example 54, 5-methyl-N-(3-(((7-(pyridin-4-yl)-2,3-dihydrofuro[3,2-c]pyridin-4-yl)amino)methyl)phenyl)-4,5,6,7-tetrahydrothiazolo[4,5-c]pyridine-2-carboxamide]
≤ 3 | ≤ 3 | ≤ 3 | ≤ 3 |  | CN1CCn2nc(NC(=O)c3cccc(CNc4ncc(-c5ccncc5)c5c4CCO5)c3)cc2C1 [Example 21]
≤ 3 | ≤ 3 | ≤ 3 | ≤ 3 | *** (ratio≥10) | CN1CCC(CCNC(=O)c2cccc(CNc3ncc(-c4ccncc4)c4c3CCO4)c2)CC1 [Example 22, N-(2-(1-methylpiperidin-4-yl)ethyl)-3-(((7-(pyridin-4-yl)-2,3-dihydrofuro[3,2-c]pyridin-4-yl)amino)methyl)benzamide]
≤ 3 | ≤ 3 |  |  |  | O=C(N[C@H](CO)c1ccccc1)c1cccc(CNc2ncc(-c3ccncc3)c3c2CCO3)c1 [Example 24, (S)-N-(2-hydroxy-1-phenylethyl)-3-(((7-(pyridin-4-yl)-2,3-dihydrofuro[3,2-c]pyridin-4-yl)amino)methyl)benzamide]
≤ 3 | ≤ 3 | ≤ 3 | ≤ 3 | *** (ratio≥10) | O=C(Nc1cccc(CNc2ncc(-c3ccncc3)c3c2CCO3)c1)c1ccc(CN2CCOCC2)cc1 [Example 36, 4-(morpholinomethyl)-N-(3-(((7-(pyridin-4-yl)-2,3-dihydrofuro[3,2-c]pyridin-4-yl)amino)methyl)phenyl)benzamide]
≤ 3 | ≤ 3 |  |  |  | O=C(Nc1cccc(CNc2ncc(-c3ccncc3)c3c2CCO3)c1)c1ccc2c(c1)CCNC2 [Example 40, N-(3-(((7-(pyridin-4-yl)-2,3-dihydrofuro[3,2-c]pyridin-4-yl)amino)methyl)phenyl)-1,2,3,4-tetrahydroisoquinoline-6-carboxamide]
3 to 30 | 3 to 30 |  |  |  | CC1CCN(CCC(=O)Nc2cccc(CNc3ncc(-c4ccncc4)c4c3CCO4)c2)CC1 [Example 32, 3-(4-Methylpiperidin-1-yl)-N-(3-(((7-(pyridin-4-yl)-2,3-dihydrofuro[3,2-c]pyridin-4-yl)amino)methyl)phenyl)propanamide]
≤ 3 | ≤ 3 | ≤ 3 | ≤ 3 | *** (ratio≥10) | CN1CCN(CCCC(=O)Nc2cccc(CNc3ncc(-c4ccncc4)c4c3CCO4)c2)CC1 [Example 35, 4-(4-methylpiperazin-1-yl)-N-(3-(((7-(pyridin-4-yl)-2,3-dihydrofuro[3,2-c]pyridin-4-yl)amino)methyl)phenyl)butanamide]
> 30 | > 30 | > 30 | > 30 | * (ratio<5) | c1ccc(CNc2ncc(-c3ccncc3)c3c2CCO3)cc1 [Example A, N-Benzyl-7-(pyridin-4-yl)-2,3-dihydrofuro[3,2-c]pyridin-4-amine, reference compound]
3 to 30 | 3 to 30 |  |  |  | Cc1cc(-c2cnc(NCc3cccc(C(=O)Nc4nc5c(s4)CN(C)CC5)c3)c3c2OCC3)ccn1 [Example 47, N-(5-Methyl-4,5,6,7-tetrahydrothiazolo[5,4-c]pyridin-2-yl)-3-(((7-(2-methylpyridin-4-yl)-2,3-dihydrofuro[3,2-c]pyridin-4-yl)amino)methyl)benzamide]
3 to 30 | 3 to 30 | 3 to 30 | 3 to 30 | *** (ratio≥10) | CNC(=O)c1cccc(CNc2ncc(-c3ccncc3)c3c2CCO3)c1 [Example 20, N-methyl-3-(((7-(pyridin-4-yl)-2,3-dihydrofuro[3,2-c]pyridin-4-yl)amino)methyl)benzamide]
≤ 3 | ≤ 3 | ≤ 3 | ≤ 3 |  | O=C(Nc1ncc(CN2CCCC2)s1)c1cccc(CNc2ncc(-c3ccncc3)c3c2CCO3)c1 [Example 1, 3-(((7-(Pyridin-4-yl)-2,3-dihydrofuro[3,2-c]pyridin-4-yl)amino)methyl)-N-(5-(pyrrolidin-1-ylmethyl)thiazol-2-yl)benzamide]
3 to 30 | 3 to 30 |  |  |  | CN(C)Cc1nc(C(=O)Nc2cccc(CNc3ncc(-c4ccncc4)c4c3CCO4)c2)cs1 [Example 53, 2-((dimethylamino)methyl)-N-(3-(((7-(pyridin-4-yl)-2,3-dihydrofuro[3,2-c]pyridin-4-yl)amino)methyl)phenyl)thiazole-4-carboxamide]
≤ 3 | ≤ 3 | 3 to 30 | 3 to 30 | *** (ratio≥10) | O=C(NCCN1CCCCC1)c1cccc(CNc2ncc(-c3ccncc3)c3c2CCO3)c1 [Example 30, N-(2-(piperidin-1-yl)ethyl)-3-(((7-(pyridin-4-yl)-2,3-dihydrofuro[3,2-c]pyridin-4-yl)amino)methyl)benzamide]
3 to 30 | ≤ 3 |  |  |  | CN1CCc2nc(NC(=O)c3cccc(CNc4ncc(-c5ccncc5)c5c4CCO5)n3)sc2C1 [Example 52, N-(5-methyl-4,5,6,7-tetrahydrothiazolo[5,4-c]pyridin-2-yl)-6-(((7-(pyridin-4-yl)-2,3-dihydrofuro[3,2-c]pyridin-4-yl)amino)methyl)picolinamide]
≤ 3 | ≤ 3 |  |  |  | Cc1cnccc1-c1cnc(NCc2cccc(C(=O)Nc3nc4c(s3)CN(C)CC4)c2)c2c1OCC2 [Example 48, N-(5-methyl-4,5,6,7-tetrahydrothiazolo[5,4-c]pyridin-2-yl)-3-(((7-(3-methylpyridin-4-yl)-2,3-dihydrofuro[3,2-c]pyridin-4-yl)amino)methyl)benzamide]
≤ 3 | ≤ 3 |  |  |  | CN(C)Cc1cccc(NC(=O)c2cccc(CNc3ncc(-c4ccncc4)c4c3CCO4)c2)c1 [Example 26, N-(3-((dimethylamino)methyl)phenyl)-3-(((7-(pyridin-4-yl)-2,3-dihydrofuro[3,2-c]pyridin-4-yl)amino)methyl)benzamide]
≤ 3 | ≤ 3 |  |  |  | O=C(Nc1cccc(CNc2ncc(-c3ccncc3)c3c2CCO3)c1)c1nc2c(s1)CN(C1COC1)CC2 [Example 38, 5-(oxetan-3-yl)-N-(3-(((7-(pyridin-4-yl)-2,3-dihydrofuro[3,2-c]pyridin-4-yl)amino)methyl)phenyl)-4,5,6,7-tetrahydrothiazolo[5,4-c]pyridine-2-carboxamide]
